Assay: recombinant UMI read abundance after kanamycin selection (control-corrected) (log10(CPM+1)); higher = more efficient recombination; extreme values may be limits of the assay; sequences stand for … in AGTGCAGAGAAAATCGGCCAGTTTTCTCTGCCTGCAGTCCGCATGCCGTGGGACCCCTTGGGTTCTAACCTGTTGCCTAGATTTATGCAGCGGACTGCCTTTCTCCCAAAGTGATAAACCGG…AGGTTGGTTTCACT; site = the 11-nt donor
Protocol: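 Pooled E. coli donor-specificity screen for the IS621 bridge recombinase. Each library member carries a reprogrammed 11-nt donor and a full-length LE bridge RNA expressed in cis from the natural promoter, with a paired donor-binding loop (8-nt LDG + 4-nt RDG) and a target-binding loop fixed to T5. It is co-electroporated with a T5 target plasmid; recombinase is induced with 0.07 mM IPTG and recombinants are selected on kanamycin. UMIs are counted as CPM, averaged over two biological replicates and corrected by the unselected control. Molecule = full bridge RNA written as DNA, built from the T5 scaffold: LDG = donor specificity nt 1-8, RDG = reverse complement of nt 8-11.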

Point of comparison: “AATTATGCATGGACCGGTTTTCCCGGTAATCCGTATTTGAA (site AATTATGCTTG)”, “recombinant UMI read abundance (log10)” value 0. Against it:
- AATGCAGCATGGACCGGTTTTCCCGGTAATCCGTATTTGAA (site AATGCAGCTTT) — higher, 0.709
- AATGGAACATGGACCGGTTTTCCCGGTAATCCGTATTTGCT (site AATGAAACTAG) — higher, 0.482
- AATGGAACATGGACCGGTTTTCCCGGTAATCCGTATTTGCT (site AATGCAACTAG) — higher, 1.05
- AATGGAACATGGACCGGTTTTCCCGGTAATCCGTATTTGCT (site AATGGAACTAG) — higher, 2.12
- AATGGAACATGGACCGGTTTTCCCGGTAATCCGTATTTGCT (site AATGTAACTAG) — higher, 1.78
- AATGGATCATGGACCGGTTTTCCCGGTAATCCGTATTTGAA (site AATGGATCTTT) — higher, 2.07
- AATGTACCATGGACCGGTTTTCCCGGTAATCCGTATTTGCG (site AATGTACCTCG) — within 0.2 log units, 0.0178
- AATGTCACATGGACCGGTTTTCCCGGTAATCCGTATTTGCT (site AATGTAACTAG) — higher, 0.799
- AATGTCACATGGACCGGTTTTCCCGGTAATCCGTATTTGCT (site AATGTCACTAG) — higher, 2.41
- AATGTCACATGGACCGGTTTTCCCGGTAATCCGTATTTGCT (site AATGTGACTAG) — within 0.2 log units, 0.0645
- AATGTCACATGGACCGGTTTTCCCGGTAATCCGTATTTGCT (site AATGTTACTAG) — higher, 0.647
- AATGTCTCATGGACCGGTTTTCCCGGTAATCCGTATTTGAC (site AATGTATCTGT) — higher, 1.32
- AATGTCTCATGGACCGGTTTTCCCGGTAATCCGTATTTGAC (site AATGTCTCTGT) — higher, 2.21
- AATGTCTCATGGACCGGTTTTCCCGGTAATCCGTATTTGAC (site AATGTGTCTGT) — the same, 0
- AATGTCTCATGGACCGGTTTTCCCGGTAATCCGTATTTGAC (site AATGTTTCTGT) — the same, 0
- AATGTGACATGGACCGGTTTTCCCGGTAATCCGTATTTGAC (site AATGTGACTGT) — higher, 2.69
- AATGTGACATGGACCGGTTTTCCCGGTAATCCGTATTTGAC (site AATGTGCCTGT) — the same, 0
- AATGTGACATGGACCGGTTTTCCCGGTAATCCGTATTTGAC (site AATGTGGCTGT) — higher, 1.01
- AATGTGACATGGACCGGTTTTCCCGGTAATCCGTATTTGAC (site AATGTGTCTGT) — the same, 0
- AATGTGGCATGGACCGGTTTTCCCGGTAATCCGTATTTGAC (site AATGTGACTGT) — higher, 1.16
- AATGTGGCATGGACCGGTTTTCCCGGTAATCCGTATTTGAC (site AATGTGCCTGT) — within 0.2 log units, 0.00397
- AATGTGGCATGGACCGGTTTTCCCGGTAATCCGTATTTGAC (site AATGTGGCTGT) — higher, 1.81
- AATGTGGCATGGACCGGTTTTCCCGGTAATCCGTATTTGAC (site AATGTGTCTGT) — higher, 0.451
- AATGTGTCATGGACCGGTTTTCCCGGTAATCCGTATTTGGC (site AATGTGTCTGA) — the same, 0
- AATGTGTCATGGACCGGTTTTCCCGGTAATCCGTATTTGGC (site AATGTGTCTGC) — higher, 2.67
- AATGTGTCATGGACCGGTTTTCCCGGTAATCCGTATTTGGC (site AATGTGTCTGG) — higher, 0.957
- AATGTGTCATGGACCGGTTTTCCCGGTAATCCGTATTTGGC (site AATGTGTCTGT) — higher, 1.99
- AATGTTTCATGGACCGGTTTTCCCGGTAATCCGTATTTGAC (site AATGTATCTGT) — higher, 1.73
- AATGTTTCATGGACCGGTTTTCCCGGTAATCCGTATTTGAC (site AATGTCTCTGT) — the same, 0
- AATGTTTCATGGACCGGTTTTCCCGGTAATCCGTATTTGAC (site AATGTGTCTGT) — the same, 0
- AATGTTTCATGGACCGGTTTTCCCGGTAATCCGTATTTGAC (site AATGTTTCTGT) — the same, 0
- AATTAAACATGGACCGGTTTTCCCGGTAATCCGTATTTGTA (site AATTAAACTTA) — higher, 0.643
- AATTAAACATGGACCGGTTTTCCCGGTAATCCGTATTTGTT (site AATTAAACTAA) — within 0.2 log units, 0.00778
- AATTAATCATGGACCGGTTTTCCCGGTAATCCGTATTTGAT (site AATTAATCTAT) — higher, 1.47
- AATTAGGCATGGACCGGTTTTCCCGGTAATCCGTATTTGGG (site AATTAGGCTCC) — within 0.2 log units, 0.0811
- AATTATACATGGACCGGTTTTCCCGGTAATCCGTATTTGGA (site AATTATACTTC) — higher, 0.828
- AATTATACATGGACCGGTTTTCCCGGTAATCCGTATTTGGA (site AATTATCCTTC) — within 0.2 log units, 0.0125
- AATTATACATGGACCGGTTTTCCCGGTAATCCGTATTTGGA (site AATTATGCTTC) — higher, 0.476
- AATTATACATGGACCGGTTTTCCCGGTAATCCGTATTTGGA (site AATTATTCTTC) — higher, 0.335
- AATTATGCATGGACCGGTTTTCCCGGTAATCCGTATTTGAA (site AATTATGCTTA) — within 0.2 log units, 0.0142
- AATTATGCATGGACCGGTTTTCCCGGTAATCCGTATTTGAA (site AATTATGCTTC) — within 0.2 log units, 0.0246
- AATTATGCATGGACCGGTTTTCCCGGTAATCCGTATTTGAA (site AATTATGCTTT) — higher, 0.313
- AATTATGCATGGACCGGTTTTCCCGGTAATCCGTATTTGGG (site AATTATGCTAC) — within 0.2 log units, 0.00898
- AATTATGCATGGACCGGTTTTCCCGGTAATCCGTATTTGGG (site AATTATGCTCC) — higher, 0.388
- AATTATGCATGGACCGGTTTTCCCGGTAATCCGTATTTGGG (site AATTATGCTGC) — the same, 0
- AATTATGCATGGACCGGTTTTCCCGGTAATCCGTATTTGGG (site AATTATGCTTC) — within 0.2 log units, 0.0224
- AATTATGCATGGACCGGTTTTCCCGGTAATCCGTATTTGTA (site AATTATGCTTA) — higher, 1.02
- AATTATGCATGGACCGGTTTTCCCGGTAATCCGTATTTGTA (site AATTATGCTTC) — within 0.2 log units, 0.0111
- AATTATGCATGGACCGGTTTTCCCGGTAATCCGTATTTGTA (site AATTATGCTTG) — within 0.2 log units, 0.00449
- AATTATGCATGGACCGGTTTTCCCGGTAATCCGTATTTGTA (site AATTATGCTTT) — within 0.2 log units, 0.0175
- AATTGGGCATGGACCGGTTTTCCCGGTAATCCGTATTTGAT (site AATTGGGCTAT) — higher, 0.68
- AATTTGGCATGGACCGGTTTTCCCGGTAATCCGTATTTGTG (site AATTTGGCTCA) — within 0.2 log units, 0.122
- AATTTGGCATGGACCGGTTTTCCCGGTAATCCGTATTTGTG (site CATTTGGCTCA) — within 0.2 log units, 0.00721
- AATTTGGCATGGACCGGTTTTCCCGGTAATCCGTATTTGTG (site GATTTGGCTCA) — within 0.2 log units, 0.011
- AATTTGGCATGGACCGGTTTTCCCGGTAATCCGTATTTGTG (site TATTTGGCTCA) — within 0.2 log units, 0.187
- AATTTGTCATGGACCGGTTTTCCCGGTAATCCGTATTTGAT (site AATTTGTCTAT) — higher, 0.517
- ACAAGGACATGGACCGGTTTTCCCGGTAATCCGTATTTGTT (site ACAAGGACTAA) — higher, 2.32
- ACAAGTCCATGGACCGGTTTTCCCGGTAATCCGTATTTGTC (site ACAAGTCCTGA) — the same, 0
- ACACAGCCATGGACCGGTTTTCCCGGTAATCCGTATTTGTC (site ACACAGCCTGA) — the same, 0
- ACACATCCATGGACCGGTTTTCCCGGTAATCCGTATTTGAC (site AAACATCCTGT) — the same, 0
- ACACATCCATGGACCGGTTTTCCCGGTAATCCGTATTTGAC (site ACAAATCCTGT) — the same, 0
- ACACATCCATGGACCGGTTTTCCCGGTAATCCGTATTTGAC (site ACACAACCTGT) — the same, 0
- ACACATCCATGGACCGGTTTTCCCGGTAATCCGTATTTGAC (site ACACACCCTGT) — higher, 0.501
- ACACATCCATGGACCGGTTTTCCCGGTAATCCGTATTTGAC (site ACACAGCCTGT) — higher, 0.424
- ACACATCCATGGACCGGTTTTCCCGGTAATCCGTATTTGAC (site ACACATACTGT) — higher, 0.457
- ACACATCCATGGACCGGTTTTCCCGGTAATCCGTATTTGAC (site ACACATCCTAT) — within 0.2 log units, 0.0886
- ACACATCCATGGACCGGTTTTCCCGGTAATCCGTATTTGAC (site ACACATCCTCT) — higher, 0.265
- ACACATCCATGGACCGGTTTTCCCGGTAATCCGTATTTGAC (site ACACATCCTGA) — the same, 0
- ACACATCCATGGACCGGTTTTCCCGGTAATCCGTATTTGAC (site ACACATCCTGC) — the same, 0
- ACACATCCATGGACCGGTTTTCCCGGTAATCCGTATTTGAC (site ACACATCCTGG) — the same, 0
- ACACATCCATGGACCGGTTTTCCCGGTAATCCGTATTTGAC (site ACACATCCTGT) — higher, 1.22

From the supplement of paper PMC11208160
